Assay results from patent US20230312550A1, “N-(2-(4-CYANOTHIAZOLIDIN-3-YL)-2-OXOETHYL)-QUINOLINE-4-CARBOXAMIDES” (AstraZeneca AB, priority 2020, published 2023).
pIC50, pKd: −log10 of the molar value. ≈ marks a conversion by molar mass, not a printed value.

What was measured:
[1] = molecular target: human Fibroblast activation protein alpha (hFAP) (Homo sapiens (Human), UniProt Q12884); assay: hFAP inhibition assay (tight binders); assay type: biochemical; conditions: Ala-Pro-AMC 20 μM, n = 1 or geometric mean n = 2-6; further: hFAP 2.4 pM
Experimental: The plates were read on a PHERAstar® reader with excitation 340 nm and emission 460 nm. Data were analyzed in Genedata Screener®. IC50 values were determined by plotting % inhibition versus log compound concentration and using a one site dose response model.

[2] = Metabolic stability in human liver microsomes (HLM); conditions: for microsomal CLint: human
Experimental: Metabolic stability in HLM was measured as described in J Comput Aided Mol Des 2015, 29, 795.

[3] = molecular target: Prolyl endopeptidase, Prolyl Oligopeptidase (hPREP) (Homo sapiens (Human), UniProt P48147); assay: hPrep inhibition assay; assay type: biochemical; conditions: hPREP 0.6 nM, Z-Gly-Pro-amino-methylcoumarin 50 μM; read-out: PREP IC50
Outline: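 Recombinant human PREP at 0.6 nM final with Z-Gly-Pro-AMC substrate at 50 μM final in Tris-HCl pH 7.5, NaCl, Triton X-100, glutathione; 15 min rt preincubation then 20 min rt reaction in dark. AMC fluorescence (ex 340/em 460 nm); IC50 from one-site dose-response fit of % inhibition.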

hFAP (M39-A757) = hFAP (M39-A757) (Homo sapiens (Human), UniProt Q12884); assay: hFAP binding assay (surface plasmon resonance); conditions: SPR, 20° C.; for hFAP Binding assay k(off) / hFAP Binding assay k(on): single cycle kinetics; for pKd: n = 1 or geometric mean n = 2-4
[4] = Metabolic stability in rat hepatocytes (rHep); conditions: n = 1 or geometric mean of n = 2-3
[5] = HLM CLint, n = 1 or average of n = 2-3
[6] = kinetic from dmso stock, Solubility, kinetic solubility, n = 1 or average of n = 2-3

human Fibroblast activation protein alpha (hFAP), sequence (Q12884 38-760): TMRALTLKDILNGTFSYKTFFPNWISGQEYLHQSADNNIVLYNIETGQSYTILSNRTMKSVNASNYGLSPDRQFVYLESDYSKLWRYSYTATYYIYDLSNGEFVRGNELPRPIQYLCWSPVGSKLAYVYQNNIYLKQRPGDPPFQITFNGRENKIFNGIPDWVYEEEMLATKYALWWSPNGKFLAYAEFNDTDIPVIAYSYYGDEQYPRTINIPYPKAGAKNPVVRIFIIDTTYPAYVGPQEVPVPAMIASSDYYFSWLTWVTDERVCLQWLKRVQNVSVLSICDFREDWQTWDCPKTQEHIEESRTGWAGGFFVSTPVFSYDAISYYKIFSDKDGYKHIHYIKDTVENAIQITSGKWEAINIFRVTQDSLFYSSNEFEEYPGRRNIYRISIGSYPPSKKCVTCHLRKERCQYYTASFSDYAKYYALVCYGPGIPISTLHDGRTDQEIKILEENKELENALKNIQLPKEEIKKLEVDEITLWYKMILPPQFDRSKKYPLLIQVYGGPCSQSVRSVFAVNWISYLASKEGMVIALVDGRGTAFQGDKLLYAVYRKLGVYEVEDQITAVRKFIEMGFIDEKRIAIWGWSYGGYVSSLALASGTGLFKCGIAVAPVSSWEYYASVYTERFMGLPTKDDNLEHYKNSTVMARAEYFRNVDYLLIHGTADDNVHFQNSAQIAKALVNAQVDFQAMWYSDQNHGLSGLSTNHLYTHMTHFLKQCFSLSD
hFAP (M39-A757), sequence (Q12884 39-757): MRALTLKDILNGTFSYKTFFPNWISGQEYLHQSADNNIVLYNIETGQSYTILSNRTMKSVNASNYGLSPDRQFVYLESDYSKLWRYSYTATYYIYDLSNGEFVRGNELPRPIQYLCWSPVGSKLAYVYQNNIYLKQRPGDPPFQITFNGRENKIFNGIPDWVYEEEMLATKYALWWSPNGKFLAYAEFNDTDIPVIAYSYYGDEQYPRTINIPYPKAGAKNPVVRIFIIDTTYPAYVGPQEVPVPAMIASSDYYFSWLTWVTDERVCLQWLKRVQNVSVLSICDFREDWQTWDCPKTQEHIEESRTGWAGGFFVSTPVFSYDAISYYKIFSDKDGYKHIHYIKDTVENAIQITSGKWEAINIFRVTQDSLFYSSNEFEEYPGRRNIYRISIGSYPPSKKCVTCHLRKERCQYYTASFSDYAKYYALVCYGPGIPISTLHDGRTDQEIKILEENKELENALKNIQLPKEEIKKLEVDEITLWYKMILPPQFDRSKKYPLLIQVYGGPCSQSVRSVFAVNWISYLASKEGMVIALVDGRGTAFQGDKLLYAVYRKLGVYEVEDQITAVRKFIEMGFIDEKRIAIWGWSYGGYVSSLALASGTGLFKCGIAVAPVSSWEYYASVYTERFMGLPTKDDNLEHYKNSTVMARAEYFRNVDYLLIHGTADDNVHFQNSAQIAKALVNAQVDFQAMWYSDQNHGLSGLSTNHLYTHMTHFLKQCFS
Prolyl endopeptidase, Prolyl Oligopeptidase (hPREP), sequence (P48147 whole entry): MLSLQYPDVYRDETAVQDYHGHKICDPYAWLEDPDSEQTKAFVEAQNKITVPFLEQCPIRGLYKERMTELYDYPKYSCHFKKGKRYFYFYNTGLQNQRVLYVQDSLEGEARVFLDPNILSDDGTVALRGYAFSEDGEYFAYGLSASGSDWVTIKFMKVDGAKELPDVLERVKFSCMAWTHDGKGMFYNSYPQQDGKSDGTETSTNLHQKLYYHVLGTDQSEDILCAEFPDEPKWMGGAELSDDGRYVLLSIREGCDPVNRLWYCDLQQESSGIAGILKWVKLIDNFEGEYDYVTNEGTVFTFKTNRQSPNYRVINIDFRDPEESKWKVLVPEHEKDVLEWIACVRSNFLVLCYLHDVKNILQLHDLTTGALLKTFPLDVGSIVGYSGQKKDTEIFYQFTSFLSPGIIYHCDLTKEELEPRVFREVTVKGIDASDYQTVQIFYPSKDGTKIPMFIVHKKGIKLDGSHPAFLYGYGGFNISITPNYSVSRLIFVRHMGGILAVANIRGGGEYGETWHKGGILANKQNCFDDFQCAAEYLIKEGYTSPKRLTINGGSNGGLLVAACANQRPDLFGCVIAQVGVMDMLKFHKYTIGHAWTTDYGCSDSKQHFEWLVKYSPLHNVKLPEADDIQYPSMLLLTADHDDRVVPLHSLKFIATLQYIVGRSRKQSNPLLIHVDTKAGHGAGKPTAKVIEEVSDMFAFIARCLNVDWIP
Experimental for Kinetic solubility: Kinetic solubility was measured as described in Comput Aided Mol Des 2015, 29, 795.

Row | Compound | pIC50 [1] | microsomal CLint [2, 5] [µL/min/mg] | pIC50 [3] | hFAP Binding assay k(off) (hFAP (M39-A757)) [s⁻¹] | hFAP Binding assay k(on) (hFAP (M39-A757)) [M⁻¹ s⁻¹] | pKd (hFAP (M39-A757)) | solubility (Kinetic solubility; [6]) [µM] | rHep CLint [4] [μL/min/1E6] | HLM CLint ([2]; n = 1 or average of n = 2-3) [µL/min/mg] | microsomal CLint ([2]; liver microsomes, HLM CLint, n = 1 or average of n = 2-3) [µL/min/mg] | microsomal CLint [2] [µL/min/mg] | solubility (Kinetic solubility; kinetic from dmso stock) [µM] | solubility (Kinetic solubility; kinetic solubility, n = 1 or average of n = 2-3) [µM]
1 | COCC[C@@H]1COCCN1c1ccc2nccc(C(=O)NCC(=O)N3CSC[C@H]3C#N)c2c1 [Example 95, N-(2-((R)-4-Cyanothiazolidin-3-yl)-2-oxoethyl)-6-((R)-3-(2-methoxyethyl)-morpholino)quinoline-4-carboxamide] | 9.80 | 63 | 6.13 | 0.000056 | 2900000 | 10.62 | 960 (≈ 451 µg/mL) | 13 | – | – | – | – | –
2 | N#C[C@@H]1CSCN1C(=O)CNC(=O)c1ccnc2ccc(N3CCOC[C@@H]3C(F)(F)F)cc12 (single isomer, unassigned) [Example 84, N-(2-((R)-4-Cyanothiazolidin-3-yl)-2-oxoethyl)-6-((R*)-3-(trifluoromethyl)-morpholino)quinoline-4-carboxamide] | 10.13 | – | 6.15 | 0.00011 | 1200000 | 9.92 | 940 (≈ 451 µg/mL) | 26 | 64 | – | – | – | –
3 | N#C[C@@H]1CSCN1C(=O)CNC(=O)c1ccnc2ccc(N3CC(COC(F)(F)F)C3)cc12 [Example 130, (R)—N-(2-(4-Cyanothiazolidin-3-yl)-2-oxoethyl)-6-(3-((trifluoromethoxy)-methyl)azetidin-1-yl)quinoline-4-carboxamide] | 9.72 | – | 6.27 | – | – | 9.74 | 16 (≈ 7.67 µg/mL) | 11 | – | 54 | – | – | –
4 | N#C[C@@H]1CSCN1C(=O)CNC(=O)c1ccnc2ccc(N3CC(F)(C(F)(F)F)C3)cc12 [Example 143, (R)—N-(2-(4-Cyanothiazolidin-3-yl)-2-oxoethyl)-6-(3-fluoro-3-(trifluoromethyl)azetidin-1-yl)quinoline-4-carboxamide] | 10.16 | 40 | 6.34 | 0.000057 | 1600000 | 10.44 | 33 (≈ 15.4 µg/mL) | 13 | – | – | – | – | –
5 | N#C[C@@H]1CSCN1C(=O)CNC(=O)c1ccnc2ccc(N3C[C@H]4CCC[C@@H](C3)O4)cc12 [Example 194, 6-((1R,5S)-9-Oxa-3-azabicyclo[3.3.1]nonan-3-yl)-N-(2-((R)-4-cyano-thiazolidin-3-yl)-2-oxoethyl)quinoline-4-carboxamide] | 10.34 | 78 | 6.34 | 0.000068 | 1100000 | 10.18 | 480 (≈ 217 µg/mL) | 44 | – | – | – | – | –
6 | C[C@H]1N(c2ccc3nccc(C(=O)NCC(=O)N4CSC[C@H]4C#N)c3c2)CC1(F)F (mixture of isomers) [Example 159, N-(2-((R)-4-Cyanothiazolidin-3-yl)-2-oxoethyl)-6-((RS)-3,3-difluoro-2-methylazetidin-1-yl)quinoline-4-carboxamide] | 10.14 | 61 | 6.55 | 0.000092 | 2100000 | 10.41 | 550 | 47 | – | – | – | – | –
7 | N#C[C@@H]1CSCN1C(=O)CNC(=O)c1ccnc2ccc(-n3ccc4c3CCCC4)cc12 [Example 219, (R)—N-(2-(4-Cyanothiazolidin-3-yl)-2-oxoethyl)-6-(4,5,6,7-tetrahydro-1H-indol-1-yl)quinoline-4-carboxamide] | 9.96 | 160 | 6.64 | 0.0002 | 2400000 | 10.08 | 2.5 (≈ 1.11 µg/mL) | 75 | – | – | – | – | –
8 | COC[C@H]1[C@H](C)OCCN1c1ccc2nccc(C(=O)NCC(=O)N3CSC[C@H]3C#N)c2c1 [Example 96, N-(2-((R)-4-Cyanothiazolidin-3-yl)-2-oxoethyl)-6-((2S,3S)-3-(methoxymethyl)-2-methylmorpholino)quinoline-4-carboxamide] | 9.77 | 71 | 6.06 | 0.00022 | 4000000 | 10.17 | > 1000 | 15 | – | – | – | – | –
9 | N#C[C@@H]1CSCN1C(=O)CNC(=O)c1ccnc2c(Cl)cc(N3CCOCC3)cc12 [Example 180, (R)-8-Chloro-N-(2-(4-cyanothiazolidin-3-yl)-2-oxoethyl)-6-morpholino-quinoline-4-carboxamide] | 9.70 | 110 | 6.23 | 0.00095 | 560000 | 8.89 | 170 (≈ 75.8 µg/mL) | 3 | – | – | – | – | –
10 | N#C[C@@H]1CSCN1C(=O)CNC(=O)c1ccnc2ccc(-n3ccnc3-c3ccccc3)cc12 [Example 217, (R)—N-(2-(4-Cyanothiazolidin-3-yl)-2-oxoethyl)-6-(2-phenyl-1H-imidazol-1-yl)quinoline-4-carboxamide] | 9.17 | > 300 | 6.51 | 0.0013 | 1800000 | 9.15 | 410 (≈ 192 µg/mL) | 37 | – | – | – | – | –
11 | CC1(C2CC2)CN(c2ccc3nccc(C(=O)NCC(=O)N4CSC[C@H]4C#N)c3c2)C1 [Example 134, (R)—N-(2-(4-Cyanothiazolidin-3-yl)-2-oxoethyl)-6-(3-cyclopropyl-3-methylazetidin-1-yl)quinoline-4-carboxamide] | 9.89 | 210 | 6.21 | 0.000080 | 620000 | 9.89 | 71 (≈ 30.9 µg/mL) | 74 | – | – | – | – | –
12 | N#C[C@@H]1CSCN1C(=O)CNC(=O)c1ccnc2ccc(N3CC4(CCS4)C3)cc12 [Example 222, (R)—N-(2-(4-Cyanothiazolidin-3-yl)-2-oxoethyl)-6-(1-thia-6-azaspiro[3.3]heptan-6-yl)quinoline-4-carboxamide] | 10.06 | – | 6.31 | – | – | 10.66 | – | 4.2 | – | – | 40 | 120 (≈ 52.7 µg/mL) | –
13 | N#C[C@@H]1CSCN1C(=O)CNC(=O)c1ccnc2ccc(-n3ccc4c(F)cc(F)cc43)cc12 [Example 119, (R)—N-(2-(4-Cyanothiazolidin-3-yl)-2-oxoethyl)-6-(4,6-difluoro-1H-indol-1-yl)quinoline-4-carboxamide] | 9.80 | 68 | 7.12 | 0.00031 | 610000 | 9.41 | 1 (≈ 0.477 µg/mL) | 27 | – | – | – | – | –
14 | N#C[C@@H]1CSCN1C(=O)CNC(=O)c1ccnc2ccc(N3CC(CCC(F)(F)F)C3)cc12 [Example 142, (R)—N-(2-(4-Cyanothiazolidin-3-yl)-2-oxoethyl)-6-(3-(3,3,3-trifluoropropyl)azetidin-1-yl)quinoline-4-carboxamide] | 10.06 | 43 | 6.28 | 0.000055 | 1800000 | 10.55 | 1.8 (≈ 0.86 µg/mL) | 6.7 | – | – | – | – | –
15 | CC(C)C1CN(c2ccc3nccc(C(=O)NCC(=O)N4CSC[C@H]4C#N)c3c2)C1 [Example 148, (R)—N-(2-(4-Cyanothiazolidin-3-yl)-2-oxoethyl)-6-(3-isopropylazetidin-1-yl)quinoline-4-carboxamide] | 10.23 | 53 | 6.38 | 0.0002 | 6600000 | 10.51 | 3.4 (≈ 1.44 µg/mL) | 12 | – | – | – | – | –
16 | N#C[C@@H]1CSCN1C(=O)CNC(=O)c1ccnc2ccc(N3CCOC[C@@H]3C(F)(F)F)cc12 (single isomer, unassigned) [Example 85, N-(2-((R)-4-Cyanothiazolidin-3-yl)-2-oxoethyl)-6-((R*)-3-(trifluoromethyl)-morpholino)quinoline-4-carboxamide] | 10.06 | – | 6.14 | 0.00011 | 4000000 | 10.49 | – | 35 | 260 | – | – | – | 800 (≈ 384 µg/mL)
